We go through 16 molecules from patent US20150328116A1, “Oral Care Composition Containing Ionic Liquids” (COLGATE-PALMOLIVE COMPANY, priority 2012, published 2015).

Assay [1] concerns 3-day old biofilm of artificial mouth consortium of bacteria (A. naeslundii, S. oralis, V. parvula, L. casei, F. nucleatum) and S. mutans. The experiment in a line: In vitro removal of a 3-day old biofilm (optical density reduction). It counts as cell-based. The note with it: for Percent Biofilm Removal (BMIM Cationic Series): […] BMIM-based ionic liquids in base prototype mouth rinse of Table 1.

Assay [2] is described as follows: In-vitro removal of tooth stains / teeth whitening (L*a*b*). Also on record: species or system human. The note with it: 1M in prototype whitening mouthwash base (Table 7); teeth soaked one hour.
Assay [3] deals with A. viscosus. In words: Minimum inhibitory concentration. In kind it is cell-based. Particulars: Actinomyces viscosus; 24 hours incubation, optical density at 610 nm.
Assay [4] has as its system A. viscosus. In words: Short Interval Kill Test (SIKT). The note with it: 0.3, 0.6 and 1 wt % in prototype mouth rinse of Table 9. In kind it is cell-based. From the text: SIKT determines the kill effect of a test article at a predetermined exposure time. […] The reaction was neutralized after 30 seconds by adding a neutralizing broth. The reaction mixture was further diluted and plated on MCA (Microbial Count Agar) plates for viable bacterial count.

Assay [5] relates to A. viscosus. In words: Growth inhibition of A. viscosus (optical density over time). In kind it is cell-based. The procedure:
DMIM chloride was incorporated into a prototype mouth rinse as illustrated in Table 9. […] The growth inhibition was measured as a change in optical density over time.

Assay [6] concerns Dental plaque samples. The experiment in a line: Dissolution of plaque (visual pellet after centrifugation). The note with it: water-insoluble plaque, ionic liquid added, vortex mixed at room temperature, centrifuged at 13,000 g.
The mark [7] stands for this setting: […] ionic liquid in base prototype mouth rinse of Table 1, 15 minutes, relative to water.
[8] abbreviates: direct comparison between EMIM and BMIM with different anions.

Usually MIC stands for the smallest concentration in the dilution series that meets the test's criterion for growth inhibition. A lower MIC goes with inhibition by little substance.

Entries after “also recorded” stand apart in the source; their conditions may differ. Like-named read-outs stand apart in the source and are kept apart here.

For “1,2,3-trimethylimidazolium methyl sulfate [TMIM MeSO4]”, in assay [1], the “Percent Biofilm Removed (Other Ionic Liquids)” value worked out at 51.8% and the “Percent Removal of a 3-day Oral Biofilm” value stood at 51.8%.

Consider “1-butyl-3-methylimidazolium methyl sulfate [BMIM MeSO4]”, for which the “Percent Biofilm Removal (BMIM Cationic Series)” value (“Percent Biofilm Removal” for short) in assay [1] is reported as 53.9%. In addition, the “Percent Removal of a 3-day Oral Biofilm” value in assay [1] (setting [7]) came out at 53.9%.

As for “1-butyl-3-methylimidazolium octyl sulfate [BMIM Octyl SO4]”, the “Percent Biofilm Removal” value in assay [1] was determined as 58.6%. Besides, in assay [1] (setting [7]), the “Percent Removal of a 3-day Oral Biofilm” value was determined as 58.6%.

Take “1-ethyl-3-methylimidazolium diethyl phosphate [EMIM diethyl PO4]”: in assay [1] (setting [7]), the “Percent Removal of a 3-day Oral Biofilm” value came to 52.7%.

In assay [2], “1-ethyl-3-methylimidazolium ethyl sulfate [EMIM Ethyl SO4]” came in with a ΔE of 4.41, a ΔL of 3.40 and a ΔW of −2.99. In addition, in assay [1], the “Percent Removal of a 3-day Oral Biofilm” value came out at 48.1%.

Take `C=CCn1cc[n+](C)c1.[Cl-]` [AMIM Cl, 1-allyl-3-methylimidazolium chloride]: in assay [1], the “Percent Biofilm Removed (Other Ionic Liquids)” value was 44.8%; the “Percent Removal of a 3-day Oral Biofilm” value stood at 44.8%; the “biofilm removal, comparison in words” value is “effective in removing biofilm”.

`CCCCn1cc[n+](C)c1.[Br-]` [BMIM Br, 1-butyl-3-methylimidazolium bromide]: the “Percent Biofilm Removal” value in assay [1] came out at 48.0%. Also, in assay [1] (setting [7]), the “Percent Removal of a 3-day Oral Biofilm” value came out at 48.0%. Further, in assay [1] (setting [8]), the “Percent Biofilm Removed (EMIM vs BMIM comparison)” value was 48.0%.

For the molecule `CCCCn1cc[n+](C)c1.[Cl-]` [BMIM Cl, 1-butyl-3-methylimidazolium chloride], the “Percent Biofilm Removal” value in assay [1] is 43.8%. In addition, in assay [1] (setting [7]), the “Percent Removal of a 3-day Oral Biofilm” value came to 43.8%. Also, the “Percent Biofilm Removed (EMIM vs BMIM comparison)” value in assay [1] (setting [8]) is 43.8%.

For `CC(=O)[O-].CCCCn1cc[n+](C)c1` [BMIM OAc, 1-butyl-3-methylimidazolium acetate], in assay [1], the “Percent Biofilm Removal” value was 55.8%. In addition, in assay [1] (setting [7]), the “Percent Removal of a 3-day Oral Biofilm” value worked out at 55.9%. Moreover, the “Percent Biofilm Removed (EMIM vs BMIM comparison)” value in assay [1] (setting [8]) turned out to be 55.8%.

In turn, `CCCCCCCCCCn1cc[n+](C)c1.[Cl-]` [DMIM Cl, 1-decyl-3-methylimidazolium chloride] gave an MIC in assay [3] of 125 µg/mL. In addition, the “Percent Removal of a 3-day Oral Biofilm” value in assay [1] (setting [7]) amounted to 57.3%. Also, the “biofilm removal, comparison in words” value in assay [1] (comment on Tables 2 and 6, listed as DMIM chloride) is “significantly more effective in removing biofilm than EMIM chloride and BMIM chloride; also recorded: most effective in removing biofilm”. In addition, the “Percent Biofilm Removed (Other Ionic Liquids)” value in assay [1] (protocol of Example 2) turned out to be 57.3%. For the same molecule, the “time to kill A. viscosus” value in assay [4] is at most 30 s. The “growth inhibition of A. viscosus” value in assay [5] (0.312 wt % in prototype mouth rinse) was “Growth inhibition of A.viscosus is maintained”; in assay [5] (1 wt % in prototype mouth rinse (Table 9), versus mouthwash containing cetylpyridinium chloride) it was “greater growth inhibition of A. viscosus than a mouthwash containing cetylpyridinium chloride”.

On to `CCn1cc[n+](C)c1.[Br-]` [EMIM Br, 1-ethyl-3-methylimidazolium bromide], for which, in assay [6], the “plaque dissolution (size of the plaque pellet)” value is given as “size of the plaque pellet is reduced”. In addition, the “Percent Removal of a 3-day Oral Biofilm” value in assay [1] (setting [7]) was found to be 48.6%. Moreover, the “Percent Biofilm Removed (EMIM vs BMIM comparison)” value in assay [1] (setting [8]) is 48.6%.

As for `CCn1cc[n+](C)c1.[Cl-]` [EMIM Cl, 1-ethyl-3-methylimidazolium chloride], in assay [1], the “Percent Biofilm Removed (EMIM vs BMIM comparison)” value worked out at 44.3% and the “Percent Removal of a 3-day Oral Biofilm” value was found to be 44.3%.

On to `CC(=O)[O-].CCn1cc[n+](C)c1` [EMIM OAc, 1-ethyl-3-methylimidazolium acetate], for which, in assay [1] (setting [7]), the “Percent Removal of a 3-day Oral Biofilm” value is reported as 52.1%. In assay [1] (setting [8]), the “Percent Biofilm Removed (EMIM vs BMIM comparison)” value is 52.1%.

`CCn1cc[n+](C)c1.Cc1ccc(S(=O)(=O)[O-])cc1` [EMIM Tosylate, 1-ethyl-3-methylimidazolium tosylate]: the “Percent Removal of a 3-day Oral Biofilm” value in assay [1] (setting [7]) is given as 59.5%.

Take `COS(=O)(=O)[O-].Cc1cc[n+](C)n1C` [MMMPz MeSO4, 1,2,3-trimethylpyrazolium (MMMPZ) methyl sulfate]: in assay [1] (setting [7]), the “Percent Removal of a 3-day Oral Biofilm” value is on record as 57.8%. Besides, the “Percent Biofilm Removed (Other Ionic Liquids)” value in assay [1] (protocol of Example 2) is 57.9%.

In the case of “tris(2-hydroxyethyl)methylammonium sulfate [MTEOA MeSO4]”, in assay [1], the “Percent Biofilm Removed (Other Ionic Liquids)” value turned out to be 52.8% and the “Percent Removal of a 3-day Oral Biofilm” value worked out at 52.8%.
